Test results as given in PubChem BioAssay AID1241 (SRMLSC, 2008).

Assay: compounds inducing NF-kB luciferase expression – cell-based, SH-SY5Y, dose response (AID 1241)
Settings: SH-SY5Y NF-kB promoter luciferase reporter, fold induction

| SMILES | EC50 [µM] |
| --- | --- |
| COc1ccc(-c2cn3cccc(C)c3n2)cc1F | 22.4 |
| Cn1cccc1/C=C1\CCC/C(=C\c2cccn2C)C1=O | 8.63 |
| COCCNc1nc(-c2cc3ccccc3o2)cs1 | 1.4 |
| Cc1ccc(-c2nc3cc(N)ccc3o2)cc1 | 2.17 |
| Cc1ccnc(NS(=O)(=O)c2ccc(NC(=O)c3ccc([N+](=O)[O-])s3)cc2)n1 | 5.77 |
| CC(C)(C)c1ccc(C(=O)/C=C2\NC(=O)CS2)cc1 | 1.14 |
| O=C(NC1=NCCS1)c1csc2ccccc12 | 17.3 |
| COc1cccc(-c2nc3cc(C)ccc3o2)c1 | 1.05 |
| COc1ccc(-c2csc(Nc3ccccc3)n2)cc1 | 2.49 |
| CC(=O)c1c(C)[nH]c(C(=O)Nc2ccc3c(c2)OCCO3)c1C | 5.26 |
| Nc1cccn2c(-c3ccc(Cl)c(Cl)c3)cnc12 | 2.68 |
| O=C(OCC(=O)c1cccs1)c1ccccc1 | 12.6 |
| Clc1ccc(Nc2nc(-c3cccs3)cs2)nc1 | 0.686 |
| O=C(CC(Nc1ccc(F)cc1)C(=O)O)c1ccccc1 (configuration not stated) | 1.5 |
| CCOC(=O)/C(=C\c1ccccc1)C(=O)c1cc(C(C)=O)c(Nc2ccccc2)s1 | 17.4 |
| CCCCOc1ccc(-c2csc(N)n2)cc1[N+](=O)[O-] | 14.1 |
| COc1ccc2nc(NC(=O)Nc3ccccc3)sc2c1 | 0.899 |
| Cc1ccccc1/C=C1\CCCc2ccccc2C1=O | 24.9 |
| O=C1c2ccccc2NC(c2cnc3ccccc3n2)N1O (configuration not stated) | 0.903 |
| Cc1ccc2oc(-c3cccc(N)c3)nc2c1 | 0.66 |
| COc1cc(/C=N/N(C)c2ccccc2)ccc1O | 2.64 |
| O=C(Nc1ccc(Cl)c(Cl)c1)Nc1ccccc1C(=O)O | 1.67 |
| Cn1c(-c2ccco2)nc2cc3ccccc3cc21 | 0.816 |

| SMILES | EC50 [µM] |
| --- | --- |
| Cc1nc2c(ccc3nc(NC(=O)c4ccc5c(c4)OCCO5)sc32)s1 | 0.784 |
| O=C(/C=C\c1ccccc1)Nc1nccs1 | 1.07 |
| COc1cccc(/C=C/C(=O)Nc2ccc3c(c2)OCCO3)c1OC | 1.05 |
| Cc1ccc(-c2nc(-c3cccnc3)no2)cc1 | 1.32 |
| CN(C)c1ccc(/C=N/NC(=O)c2ccco2)cc1 | 18.2 |
| Cc1csc(SCc2nnc(-c3ccccc3Br)o2)n1 | 4.69 |
| COc1ccc(-c2cn3ccc4ccccc4c3n2)cc1 | 0.716 |
| CCCCn1cnc2sc(-c3ccccc3)cc2c1=O | 12 |
| CN(C)c1ccc(NC(=O)Nc2cccc(Cl)c2)cc1 | 3.42 |
| Cc1ccc(NC(=S)N2CCC(c3ccccc3)C2)c(Cl)c1 (configuration not stated) | 1.79 |
| O=C(Nc1ccc2c(c1)CCC2)c1ccccc1F | 1.8 |
| Cc1ccc(N/N=C(\C#N)C(=N)N2CCCCCC2)cc1 | 1.85 |
| COc1ccc(-c2cc(-c3ccccc3O)[nH]n2)cc1 | 0.968 |
| COc1ccc2c(=O)c(-c3nc(C)cs3)coc2c1 | 1.08 |
| CN(C)c1ccc(/C=c2\sc3n(c2=O)CCCN=3)cc1 | 11.6 |
| Cc1cccnc1NCc1ccc(O)c2ncccc12 | 7.65 |
| O=C(/C=C/Nc1ccc(F)c(F)c1)c1cccs1 | 0.963 |
| CC(/C=N/NC(=O)c1cccs1)=C\c1ccccc1 | 2.31 |
| COc1ccc(OCc2cccc(C(=O)O)c2)cc1 | 0.964 |
| O=C(c1ccccc1)c1cnc(-c2ccc(Cl)cc2)s1 | 1.25 |
| Cc1ccc(C(=O)/C=C/Nc2ccc3c(c2)OCO3)cc1 | 0.896 |
| CC(C)c1oc(=O)cc2c1[C@@H](O)[C@H]1OC(=O)[C@@]3(C)C[C@@H](O)[C@@H](O)[C@@]2(C)C13 (some centres not stated) | 4.45 |
| COc1ccc(CSc2nc3ccccc3[nH]2)cc1 | 4.29 |

| SMILES | EC50 [µM] |
| --- | --- |
| O=C(CSc1ncnc2ccccc12)c1ccco1 | 4.15 |
| COc1ccc2c(c1)OC/C(=C/c1cccs1)C2=O | 5.52 |
| CCC(=O)NC(=Nc1nc2ccccc2s1)NC(=O)CC | 4.45 |
| N#C/C(=N\Nc1ccc(F)cc1)C(=N)N1CCCCC1 | 2.97 |
| O=C(Cc1ccccc1)Nc1nc2ccccc2s1 | 29.5 |
| O=C1C(c2cc(=O)c3ccccc3[nH]2)=C(O)c2ccccc21 | 4.98 |
| Cc1ccc(-c2nc3cc(Cl)ccc3o2)cc1 | 1.75 |
| O=C(NCCCn1ccnc1)c1cc(-c2cccs2)on1 | 24.1 |
| CCc1ccc2oc(-c3ccc(N)cc3)nc2c1 | 0.342 |
| CC(=O)c1ccc(Nc2ccc(-c3ccccc3F)nn2)cc1 | 0.838 |
| O=[N+]([O-])c1ccccc1OCc1nc(-c2cccs2)no1 | 1.73 |
| O=C(OCC(=O)c1c[nH]c2ccccc12)c1cccc(O)c1 | 14.6 |
| Nc1ccc(/C=C/C(=O)c2cccs2)cc1 | 8.72 |
| COc1ccc(C(=O)N=c2sc3ccccc3n2C)cc1 | 6.41 |
| COc1cccc2sc(N(C)c3ccccc3)nc12 | 2.67 |
| C(=N\Nc1nc2ccccc2s1)/c1cccs1 | 0.887 |
| COc1ccc(-c2ccc3ccccc3n2)cc1 | 0.651 |
| CN(c1ccccc1)c1ccc(/C=N/N2CCOCC2)cc1 | 6.77 |
| Cc1nc(N)sc1N=Nc1ccc(Br)cc1 | 7 |
| COc1ccc(N2C(=S)NC3N2C(=S)NC3(C)c2ccccc2)cc1 (configuration not stated) | 8.37 |
| Oc1cccc(/C=N/Nc2cccc3cccnc23)c1 | 1.35 |
| Cc1ccsc1C(=O)OCc1csc(-c2ccccc2)n1 | 1.54 |
| Cc1nn2cc(-c3ccccc3)nc2s1 | 2.03 |

| SMILES | EC50 [µM] |
| --- | --- |
| C=CCNc1nc(-c2ccc(Cl)cc2)cs1 | 11.1 |
| O=C(c1cc(-c2cccc(O)c2)on1)N1CCCCC1 | 5.51 |
| Fc1ccc(-c2cnn3c(-c4ccncc4)ccnc23)cc1 | 1.24 |
| Fc1ccc(Nc2ccc3ccccc3n2)c(F)c1 | 0.698 |
| Oc1c(C(Nc2ccccn2)c2ccccn2)ccc2cccnc12 (configuration not stated) | 3.99 |
| CCSc1ccc(-c2ccc(C)cc2)nn1 | 0.69 |
| Cc1ccccc1-c1cc(-c2ccccc2O)on1 | 9.69 |
| Cn1/c(=N/N=C/c2ccccn2)sc2ccccc21 | 6.33 |
| NC(=O)c1ccsc1NC(=O)c1ccc2c(c1)CCCC2 | 0.455 |
| N/C(=N\N=C\c1cccc(O)c1)c1nonc1N | 3.31 |
| CCNC(=S)NNC(=O)c1cc(-c2ccc(OCC)cc2)nc2ccccc12 | 1.08 |
| COc1ccc2nc(NC(=S)N(C)C)sc2c1 | 24.8 |
| Cc1occc1C(=O)Nc1ccc2ccccc2c1 | 3.7 |
| Cc1ccc(/C=C(\C#N)c2nc3ccccc3[nH]2)s1 | 0.637 |
| Cc1ccc2nc(NC(=O)c3ccc(Cl)s3)sc2c1 | 1.06 |
| Cc1nn(-c2ccc([N+](=O)[O-])cc2)c(N)c1-c1ccccc1 | 6.72 |
| OCc1cn(-c2ccccc2)nc1-c1cc2ccccc2o1 | 6.68 |
| Cc1cc(C)cc(NC(=O)c2ccc([N+](=O)[O-])o2)c1 | 4.24 |
| C/C(=N\NC(=O)c1ccc(Cl)cc1)c1cccs1 | 1.4 |
| N/C(=N\OC(=O)c1ccccc1Cl)c1ccccc1 | 0.956 |
| O=C(NCCSc1ccccn1)c1ccc(Cl)cc1 | 2.7 |
| Fc1ccc(-c2nc3n(n2)Cc2ccccc2-3)cc1 | 0.125 |
| O=C(Nc1ccc2c(c1)OCCO2)c1ccc(Br)s1 | 0.609 |

| SMILES | EC50 [µM] |
| --- | --- |
| COC(=O)c1ccc(/C=C(\C#N)c2ccccn2)cc1 | 25.1 |
| COC(=O)c1sc(NC(=O)c2cc3c(s2)CCCC3)nc1C | 13.6 |
| CN(C)C(=O)Oc1ccc(-c2cn3cc(Cl)ccc3n2)cc1 | 3.22 |
| O=C(/C=C/Nc1ccccc1F)c1ccc(Br)cc1 | 0.595 |
| CCCCOC(=O)Nc1nc2ccccc2s1 | 3.47 |
| Oc1cccc(-c2nc3ccccc3s2)c1 | 4.1 |
| O=C(N/N=C/C(Br)=C/c1ccccc1)c1n[nH]c2c1CCC2 | 0.659 |
| CCCCNc1ncnc2c1cnn2-c1ccccc1 | 6.07 |
| CCOc1ccc2nc(NC(=S)N(C)C)sc2c1 | 17.3 |
| O=C(O)c1cccc(COc2ccccc2Cl)c1 | 1.35 |
| CCOC(=O)c1sc(NC(=O)c2ccccc2)cc1C | 5.74 |
| O=C(NCc1ccco1)c1ccc([N+](=O)[O-])o1 | 6.89 |
| Cc1ccnc(NC(=O)CCCOc2cc(=O)n(C)c3ccccc23)c1 | 10.5 |
| Nc1nc(-c2cccnc2)nc2sc3c(c12)CCCC3 | 6.84 |
| CC(C)Oc1ccc(C(=O)NC2=NCCS2)cc1 | 1.87 |
| Cc1cccn2cc(-c3ccc(F)cc3)nc12 | 1.86 |
| COc1ccc(N/C=C\C(=O)c2ccc3c(c2)OCO3)cc1 | 1.63 |
| COC(=O)c1ccc(-c2nc3ccc(C)cc3o2)cc1 | 3.3 |
| CSc1ccccc1-c1nnc(-c2ccccc2)o1 | 3.7 |
| COc1ccc2nc(NC(=O)c3ccoc3C)sc2c1 | 3.99 |
| Cc1ccc(/C=N/Nc2nc3ccccc3s2)o1 | 0.79 |
| CCc1ccc(C(=O)/C=C/c2cnn(C)c2C)s1 | 7.9 |
| CC(/C=N/NC(=O)c1ccco1)=C\c1ccccc1 | 4.66 |

| SMILES | EC50 [µM] |
| --- | --- |
| Cc1ccc(/C=N/Nc2nnc(Cl)c3ccccc23)cc1 | 1.53 |
| CC(=O)Nc1cccc(-c2csc(Nc3ccccn3)n2)c1 | 2.67 |
| Cc1ccc(-c2nnc(-c3ccccc3)o2)cc1 | 3.44 |
| C=CCN=c1scc(-c2ccccc2)n1/N=C/c1ccccn1 | 1.46 |
| Cc1nc2ccc(-c3nc4ccccc4o3)cc2[nH]1 | 3.3 |
| COc1ccc(C(=O)/C=C/Nc2ccc(C)cn2)cc1OC | 6.49 |
| COc1ccc(NC(=O)c2csc3c2CCCC3)cc1 | 16.7 |
| Brc1ccc(-c2ncc(-c3ccccc3)cn2)cc1 | 3.87 |
| CCOc1cc(/C=N/Nc2cccc(C(=O)O)c2)ccc1OC(=O)c1ccccc1 | 4 |
| Cc1ccc(N2Cc3ccccc3C2=S)cc1 | 5.15 |
| COc1cccc(CNc2cnc3ccccc3c2)c1O | 13.9 |
| COc1ccccc1Nc1nc(-c2cccs2)cs1 | 3.68 |
| CCOC(=O)c1cnc(SCc2ccccc2)nc1N | 8.92 |
| O=C(/C=C/c1ccco1)N1CCc2ccccc21 | 1.04 |
| CC(C)(C)C(=O)Nc1nc(-c2ccccc2)ns1 | 2.73 |
| NS(=O)(=O)c1cc(C(=O)OCC(=O)c2ccc3c(c2)OCCO3)ccc1Cl | 3.47 |
| COc1ccc(/C=N/Nc2ncccc2[N+](=O)[O-])c(OC)c1 | 3.35 |
| O=C(Nc1ccc2c(c1)OCCO2)NC1CCCCC1 | 18.2 |
| Cc1ccc(C(=O)/C=C/Nc2cccc(O)c2)cc1 | 0.559 |
| Cc1cc(NC(=O)Nc2ccccc2F)ccc1Br | 4.35 |
| CCCCCCOc1ccc(OC(=O)c2cccnc2)cc1 | 0.189 |
| CCC(=O)Nc1ccc2oc(-c3ccccc3Br)nc2c1 | 2.64 |
